pIC50: −log10 of the molar value.

The target in experiment [1] is T1, FGFR1 (Homo sapiens, UniProt P11362).
T1 construct: made in house; host or cells: E. coli (BL21-derived), T7 phage
Kind of experiment: Kinase binding assay (kinase-tagged T7 phage, affinity beads, qPCR), Kd. The note with it: read-out: FGFR1 (Kd nM). The method, boiled down: (§1)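 Competition binding of compounds against kinase-tagged T7 phage captured on immobilised biotinylated ligand beads; bead-bound kinase quantified by qPCR of eluates. 11-point 3-fold dilution, 0.9% DMSO final; Kd from Hill fit with slope fixed at −1.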
A general note: In qPCR the cycle at which signal appears reflects the starting amount.

Experiment [2] addresses T2, FGFR2 (Homo sapiens, UniProt P21802).
T2 construct: made in house; host or cells: E. coli (BL21-derived), T7 phage
The description is as above. Particulars: read-out: FGFR2 (Kd nM). The method, boiled down:
as §1

Experiment [3] has as its target T3, FGFR3 (Homo sapiens, UniProt P22607).
T3 construct: made in house; host or cells: E. coli (BL21-derived), T7 phage
Described as above. Particulars: read-out: FGFR3 (Kd nM). The method, boiled down:
as §1

Experiment [4] deals with T4, FGFR3 (V555M) (Homo sapiens, UniProt P22607, V555M).
T4 construct: made in house; host or cells: E. coli (BL21-derived), T7 phage
T4 sequence (P22607 23-806 V555M): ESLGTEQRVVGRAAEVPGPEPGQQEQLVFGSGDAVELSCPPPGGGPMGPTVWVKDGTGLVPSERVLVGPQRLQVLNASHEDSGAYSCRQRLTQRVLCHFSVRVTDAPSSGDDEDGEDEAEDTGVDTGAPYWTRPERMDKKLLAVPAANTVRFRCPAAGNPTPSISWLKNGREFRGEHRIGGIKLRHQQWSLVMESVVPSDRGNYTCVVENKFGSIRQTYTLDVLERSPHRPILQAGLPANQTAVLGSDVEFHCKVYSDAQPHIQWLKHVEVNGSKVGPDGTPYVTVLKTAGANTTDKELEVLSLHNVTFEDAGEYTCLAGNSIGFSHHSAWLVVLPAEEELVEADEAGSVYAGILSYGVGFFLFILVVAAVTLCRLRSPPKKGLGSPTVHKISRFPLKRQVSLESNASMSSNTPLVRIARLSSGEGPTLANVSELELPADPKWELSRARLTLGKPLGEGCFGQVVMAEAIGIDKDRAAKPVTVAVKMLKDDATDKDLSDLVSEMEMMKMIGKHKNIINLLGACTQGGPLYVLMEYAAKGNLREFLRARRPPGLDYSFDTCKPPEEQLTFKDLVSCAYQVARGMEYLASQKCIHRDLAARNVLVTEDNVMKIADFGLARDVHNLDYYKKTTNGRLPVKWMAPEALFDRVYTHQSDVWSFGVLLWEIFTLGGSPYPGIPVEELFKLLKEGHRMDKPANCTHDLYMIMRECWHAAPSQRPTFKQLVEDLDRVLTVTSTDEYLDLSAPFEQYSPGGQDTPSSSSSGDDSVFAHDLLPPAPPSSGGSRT
The description is as above. The note with it: V555M mutant; read-out: FGFR3 (V555M) (Kd nM). The essentials:
as §1

Experiment [5] concerns the target T5, FGFR4 (Homo sapiens, UniProt P22455).
T5 construct: made in house; host or cells: E. coli (BL21-derived), T7 phage
The experiment is described as above. Particulars: read-out: FGFR4 (Kd nM). The method, boiled down: as §1

In experiment [6] the test system is KATO-III cell line (FGFR2 amplification). The experiment is described as follows: Cancer cell line cell viability assay (Cell Titer-Glo), 72 hr. In kind it is cell-based. Particulars: Homo sapiens, KATO III. The method, boiled down: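 Cells seeded at 5,000-20,000/well, incubated overnight, then treated with a 9-dose, 4-fold dilution series from 3 μM in triplicate at 37° C, 5% CO2. Viability read by Cell Titer-Glo 2.0 luminescence as percent of DMSO control; IC50 from 4-parameter variable-slope sigmoidal fit.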
(In general: Cellular ATP, detected with luciferase, serves as a proxy for viable cell number.)

For experiment [7], the system named is KG-1 cell line (FGFR 1-fusion). The experiment is described as above. In kind it is cell-based. The note with it: Homo sapiens, KG-1, KG-1 cell line (FGFR1-fusion). The essentials:
(§2)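 Intracellular ATP was measured by Cell Titer-Glo 2.0 luminescence after cells were incubated with compound dilutions (top 3 μM, 4-fold, 9 doses). Values were expressed relative to DMSO-treated cells and IC50 was calculated from a variable-slope dose-response curve.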

The test system of experiment [8] is RT112/84 cell line (FGFR3-fusion). The experiment is described as above. Particulars: Homo sapiens, RT112/84, RT112/84 cell line (FGFR3-fusion). In kind it is cell-based. The essentials: as §2

T1 sequence (P11362 22-822): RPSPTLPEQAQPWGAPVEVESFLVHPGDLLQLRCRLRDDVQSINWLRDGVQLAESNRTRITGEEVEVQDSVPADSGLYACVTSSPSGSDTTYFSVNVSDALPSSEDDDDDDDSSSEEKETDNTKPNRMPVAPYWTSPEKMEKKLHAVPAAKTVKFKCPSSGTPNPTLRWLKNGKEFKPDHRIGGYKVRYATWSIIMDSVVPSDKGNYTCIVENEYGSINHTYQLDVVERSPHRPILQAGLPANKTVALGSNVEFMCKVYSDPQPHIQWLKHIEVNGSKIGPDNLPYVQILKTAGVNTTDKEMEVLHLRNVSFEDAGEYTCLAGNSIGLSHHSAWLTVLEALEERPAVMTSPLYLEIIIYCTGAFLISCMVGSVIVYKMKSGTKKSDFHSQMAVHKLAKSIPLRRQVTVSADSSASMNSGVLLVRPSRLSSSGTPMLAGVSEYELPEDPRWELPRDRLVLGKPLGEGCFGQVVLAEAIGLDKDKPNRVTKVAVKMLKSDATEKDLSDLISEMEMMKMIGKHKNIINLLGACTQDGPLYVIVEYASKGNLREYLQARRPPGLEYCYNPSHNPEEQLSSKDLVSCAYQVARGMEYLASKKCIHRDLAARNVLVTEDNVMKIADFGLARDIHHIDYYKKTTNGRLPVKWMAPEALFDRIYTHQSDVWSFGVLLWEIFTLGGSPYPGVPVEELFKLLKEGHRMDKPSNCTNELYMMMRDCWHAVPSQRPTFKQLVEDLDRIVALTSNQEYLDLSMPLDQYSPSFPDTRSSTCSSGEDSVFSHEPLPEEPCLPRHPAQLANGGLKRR
T5 sequence (P22455 22-802): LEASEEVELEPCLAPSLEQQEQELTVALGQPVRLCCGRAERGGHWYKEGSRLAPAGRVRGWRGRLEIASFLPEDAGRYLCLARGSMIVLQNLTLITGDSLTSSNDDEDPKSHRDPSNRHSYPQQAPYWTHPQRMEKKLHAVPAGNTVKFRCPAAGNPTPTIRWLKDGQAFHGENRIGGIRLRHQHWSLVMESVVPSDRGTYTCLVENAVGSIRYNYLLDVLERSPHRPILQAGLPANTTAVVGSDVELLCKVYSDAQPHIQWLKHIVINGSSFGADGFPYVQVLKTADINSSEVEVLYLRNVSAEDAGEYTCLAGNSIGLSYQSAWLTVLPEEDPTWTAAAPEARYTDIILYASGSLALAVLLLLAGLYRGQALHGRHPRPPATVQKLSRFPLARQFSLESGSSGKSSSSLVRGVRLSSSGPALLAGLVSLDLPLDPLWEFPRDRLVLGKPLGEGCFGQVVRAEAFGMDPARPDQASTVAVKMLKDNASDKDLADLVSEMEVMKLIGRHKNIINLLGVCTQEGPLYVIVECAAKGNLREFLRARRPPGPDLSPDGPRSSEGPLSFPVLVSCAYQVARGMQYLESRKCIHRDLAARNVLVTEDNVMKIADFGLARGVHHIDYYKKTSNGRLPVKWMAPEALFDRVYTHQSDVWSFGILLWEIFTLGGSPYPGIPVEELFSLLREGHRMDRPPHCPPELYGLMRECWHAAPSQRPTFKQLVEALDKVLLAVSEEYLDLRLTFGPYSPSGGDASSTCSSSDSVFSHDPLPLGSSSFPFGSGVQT
T2 sequence (P21802 22-821): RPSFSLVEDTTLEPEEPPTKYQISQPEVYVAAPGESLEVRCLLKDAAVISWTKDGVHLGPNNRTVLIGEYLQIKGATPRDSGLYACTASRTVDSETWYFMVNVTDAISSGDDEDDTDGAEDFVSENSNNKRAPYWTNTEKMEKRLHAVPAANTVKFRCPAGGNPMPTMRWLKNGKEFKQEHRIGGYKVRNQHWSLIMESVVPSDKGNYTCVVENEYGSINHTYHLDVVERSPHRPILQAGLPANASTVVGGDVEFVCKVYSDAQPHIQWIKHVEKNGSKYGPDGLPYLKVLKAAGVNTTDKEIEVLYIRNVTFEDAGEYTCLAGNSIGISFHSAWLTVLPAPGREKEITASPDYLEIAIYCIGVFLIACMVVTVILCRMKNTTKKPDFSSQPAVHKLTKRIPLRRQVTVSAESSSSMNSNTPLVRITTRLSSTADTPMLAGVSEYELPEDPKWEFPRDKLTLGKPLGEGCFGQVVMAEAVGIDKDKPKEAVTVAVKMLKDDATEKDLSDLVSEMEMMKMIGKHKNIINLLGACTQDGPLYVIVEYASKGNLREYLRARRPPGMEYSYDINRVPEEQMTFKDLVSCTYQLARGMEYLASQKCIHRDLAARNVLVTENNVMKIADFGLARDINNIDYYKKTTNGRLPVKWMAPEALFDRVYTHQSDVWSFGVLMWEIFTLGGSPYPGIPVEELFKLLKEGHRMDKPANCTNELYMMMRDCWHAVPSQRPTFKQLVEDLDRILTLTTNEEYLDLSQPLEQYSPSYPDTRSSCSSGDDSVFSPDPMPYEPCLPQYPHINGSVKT
T3 sequence (P22607 23-806): as the sequence (P22607 23-806 V555M) above, with M533V counted along it

As a reminder, the Kd is the free concentration of one partner at which half of the binding sites on the other are occupied at equilibrium, for simple one-to-one binding. As a reminder, the pIC50 is the negative decadic logarithm of the IC50, by convention in mol/L. The low end stands for a high IC50, the high end for a low IC50. For the compound `CNC1(C)CN(c2ncc(-c3n[nH]c4ccc(O[C@H](C)c5c(Cl)cncc5Cl)cc34)cc2F)C1` [Example 171, (R)-1-(5-(5-(1-(3,5-dichloropyridin-4-yl)ethoxy)-1H-indazol-3-yl)-3-fluoropyridin-2-yl)-N,3-dimethylazetidin-3-amine], the Kd in experiment [1], in experiment [2], in experiment [3], in experiment [4] and in experiment [5] was 1 to 50 nM in each case. Moreover, the pIC50 in experiment [6], in experiment [7] and in experiment [8] was 7.30 to 10.00 in each case.
For the compound `C[C@@H](Oc1ccc2[nH]nc(-c3cnc(N4CC(C)(N5CC(C)(C)C5)C4)c(F)c3)c2c1)c1c(Cl)cncc1Cl` [Example 111, (R)-5-(1-(3,5-dichloropyridin-4-yl)ethoxy)-3-(5-fluoro-6-(3,3,3′-trimethyl-[1,3′-biazetidin]-1′-yl)pyridin-3-yl)-1H-indazole], the Kd in experiment [1], in experiment [2], in experiment [3], in experiment [4] and in experiment [5] was 1 to 50 nM throughout. In addition, the pIC50 is 7.30 to 10.00 in experiment [6], 6.70 to 7.30 in experiment [7] and 7.30 to 10.00 in experiment [8].
For `C[C@@H](Oc1ccc2[nH]nc(-c3cnc(N4CC(C)(NCCO)C4)c(F)c3)c2c1)c1c(Cl)cncc1Cl` [Example 114, (R)-2-((1-(5-(5-(1-(3,5-dichloropyridin-4-yl)ethoxy)-1H-indazol-3-yl)-3-fluoropyridin-2-yl)-3-methylazetidin-3-yl)amino)ethan-1-ol], the Kd in experiment [1], in experiment [2], in experiment [3], in experiment [4] and in experiment [5] was 1 to 50 nM in each case. The pIC50 in experiment [6], in experiment [7] and in experiment [8] was 7.30 to 10.00 each time.
With `C[C@@H](Oc1ccc2[nH]nc(-c3cnc(N4CC(C)(N5CC(C)(O)C5)C4)c(F)c3)c2c1)c1c(Cl)cncc1Cl` [Example 96, (R)-1′-(5-(5-(1-(3,5-dichloropyridin-4-yl)ethoxy)-1H-indazol-3-yl)-3-fluoropyridin-2-yl)-3,3′-dimethyl-[1,3′-biazetidin]-3-ol], the Kd in experiment [1], in experiment [2], in experiment [3], in experiment [4] and in experiment [5] was 1 to 50 nM in each case. Also, the pIC50 in experiment [6], in experiment [7] and in experiment [8] was 7.30 to 10.00 throughout.
On to `CC(C)NCC1(C)CN(c2ncc(-c3n[nH]c4ccc(O[C@H](C)c5c(Cl)cncc5Cl)cc34)cc2F)C1` [Example 108, (R)-N-((1-(5-(5-(1-(3,5-dichloropyridin-4-yl)ethoxy)-1H-indazol-3-yl)-3-fluoropyridin-2-yl)-3-methylazetidin-3-yl)methyl)propan-2-amine], for which the Kd in experiment [1], in experiment [2], in experiment [3], in experiment [4] and in experiment [5] was 1 to 50 nM each time. Also, the pIC50 in experiment [6], in experiment [7] and in experiment [8] was 7.30 to 10.00 in each case.
As for `C[C@@H](Oc1ccc2[nH]nc(-c3ccc(N4CC(C)(NC5CCC5)C4)nc3)c2c1)c1c(Cl)cncc1Cl` [Example 63, (R)-N-cyclobutyl-1-(5-(5-(1-(3,5-dichloropyridin-4-yl)ethoxy)-1H-indazol-3-yl)pyridin-2-yl)-3-methylazetidin-3-amine], the Kd in experiment [1], in experiment [2], in experiment [3], in experiment [4] and in experiment [5] was 1 to 50 nM each time. Moreover, the values for the pIC50 in experiment [6], in experiment [7] and in experiment [8] were 7.30 to 10.00, 6.70 to 7.30 and 7.30 to 10.00, respectively.
Regarding `C[C@@H](Oc1ccc2[nH]nc(-c3cnc(N4CC(C)(O)C4)c(F)c3)c2c1)c1c(Cl)cncc1Cl` [Example 154, 1-[5-[5-[(1R)-1-(3,5-dichloro-4-pyridyl)ethoxy]-1H-indazol-3-yl]-3-fluoro-2-pyridyl]-3-methyl-azetidin-3-ol], the Kd in experiment [1], in experiment [2], in experiment [3], in experiment [4] and in experiment [5] was 1 to 50 nM throughout. Moreover, the pIC50 in experiment [6] was 6.70 to 7.30; in experiment [7], 6.70 to 7.30; in experiment [8], 7.30 to 10.00.
As to `C[C@H]1CN(C2(C)CN(c3ccc(-c4n[nH]c5ccc(O[C@H](C)c6c(Cl)cncc6Cl)cc45)cn3)C2)CCO1` [Example 212, (S)-4-(1-(5-(5-((R)-1-(3,5-dichloropyridin-4-yl)ethoxy)-1H-indazol-3-yl)pyridin-2-yl)-3-methylazetidin-3-yl)-2-methylmorpholine], the Kd in experiment [1], in experiment [2], in experiment [3], in experiment [4] and in experiment [5] was 1 to 50 nM in each case. Also, the results for the pIC50 in experiment [6], in experiment [7] and in experiment [8] were 7.30 to 10.00, 6.70 to 7.30 and 7.30 to 10.00, respectively.
Regarding `COc1cc2[nH]nc(-c3ccc(N4CC(C)(N[C@@H]5CCOC5)C4)nc3)c2cc1O[C@H](C)c1c(Cl)cncc1Cl` [Example 73, 1-(5-(5-((R)-1-(3,5-dichloropyridin-4-yl)ethoxy)-6-methoxy-1H-indazol-3-yl)pyridin-2-yl)-3-methyl-N-((R)-tetrahydrofuran-3-yl)azetidin-3-amine], the Kd in experiment [1], in experiment [2], in experiment [3], in experiment [4] and in experiment [5] was 1 to 50 nM throughout. In addition, the pIC50 in experiment [6], in experiment [7] and in experiment [8] was 7.30 to 10.00 in each case.
In the case of `C[C@@H](Oc1ccc2[nH]nc(-c3cnc(N4CC(C)(NCC(C)(C)O)C4)c(F)c3)c2c1F)c1c(Cl)cncc1Cl` [Example 170, (R)-1-((1-(5-(5-(1-(3,5-dichloro-pyridin-4-yl)ethoxy)-4-fluoro-1H-indazol-3-yl)-3-fluoropyridin-2-yl)-3-methylazetidin-3-yl)amino)-2-methylpropan-2-ol], the Kd in experiment [1] is over 1000 nM; in experiment [2], over 1000 nM; in experiment [3], 50 to 300 nM; in experiment [4] it was 50 to 300 nM; in experiment [5], 300 to 1000 nM. The pIC50 in experiment [6], in experiment [7] and in experiment [8] was under 6.00 throughout.
With `C[C@@H](Oc1ccc2[nH]nc(-c3ccc(N4CC(C)(NCCO)C4)nc3)c2c1)c1c(Cl)cncc1Cl` [Example 89, (R)-2-((1-(5-(5-(1-(3,5-dichloropyridin-4-yl)ethoxy)-1H-indazol-3-yl)pyridin-2-yl)-3-methylazetidin-3-yl)amino)ethan-1-ol], the Kd in experiment [1], in experiment [2], in experiment [3], in experiment [4] and in experiment [5] was 1 to 50 nM throughout. In addition, the pIC50 in experiment [6], in experiment [7] and in experiment [8] was 7.30 to 10.00 in each case.
